According to patent US11542304B2, “Multimeric bicyclic peptide ligands” (BicycleTx Limited, priority 2018, dated 2023):
Starred links: 1 amine or outer side, 2 acyl side, 3 side chain; linkers in the order of their positions; H or OH if unused. Positions of bridges follow the written chain, without caps; N, C: chain ends. Non-standard residues stand in square brackets, D forms with d. Chains are numbered I, II in the order given. X1 = O=C(CCOCCN(CCOCCC(=O)NCCOCCOCCOCCOCCOCCOCCOCCOCCOCCOCCn1cc(CCC(=O)[*:2])nn1)CCOCCC(=O)NCCOCCOCCOCCOCCOCCOCCOCCOCCOCCOCCn1cc(CCC(=O)[*:3])nn1)NCCOCCOCCOCCOCCOCCOCCOCCOCCOCCOCCn1cc(CCC(=O)[*:1])nn1; TATA = O=C(CC[*:1])N1CN(C(=O)CC[*:2])CN(C(=O)CC[*:3])C1; Nle = CCCC[C@H](N)C(=O)O

Columns and labels:
[1] = clinical testing, cited from earlier work
[2] = Pharmacokinetics of Bicycle multimers in CD-1 mice; details: 5 mg/kg IV, male CD-1 mice; FIGS. 5A and 5B
Experimental: Male CD-1 mice were dosed with 5 mg/kg of each Bicycle multimer formulated in 25 mM Histidine HCl, 10% sucrose pH 7 via tail vein injection. Serial bleeding (about 80 μL blood/time point) was performed via submandibular or saphenous vein at each time point. All blood samples were immediately transferred into prechilled microcentrifuge tubes containing 2 μL K2-EDTA (0.5M) as anti-coagulant and placed on wet ice. Blood samples were immediately processed for plasma by centrifugation at approximately 4° C., 3000 g. The precipitant including internal standard was immediately added into the plasma, mixed well and centrifuged at 12,000 rpm, 4° C. for 10 minutes. The supernatant was transferred into pre-labeled polypropylene microcentrifuge tubes, and then quick-frozen over dry ice. The samples were stored at 70° C. or below as needed until analysis. 7.5 μL of the supernatant samples were directly injected for LC-MS/MS analysis using an Orbitrap Q Exactive in positive ion mode to determine the concentrations of Bicycle multimer. Plasma concentration versus time data were analyzed by non-compartmental approaches using the Phoenix WinNonlin 6.3 software program. C0, Cl, Vdss, T1/2, AUC(0-last), AUC(0-inf), MRT(0-last), MRT(0-inf) and graphs of plasma concentration versus time profile were reported.

CD137 = CD137 (Homo sapiens, UniProt Q07011); test: CD137 Promega reporter cell activity assay (NF-κB luciferase in Jurkat cells); details: for Average Relative Fold Induction relative to CD137L: Average fold induction for CD137L = 4.0
Chain of CD137 (Q07011 24-255): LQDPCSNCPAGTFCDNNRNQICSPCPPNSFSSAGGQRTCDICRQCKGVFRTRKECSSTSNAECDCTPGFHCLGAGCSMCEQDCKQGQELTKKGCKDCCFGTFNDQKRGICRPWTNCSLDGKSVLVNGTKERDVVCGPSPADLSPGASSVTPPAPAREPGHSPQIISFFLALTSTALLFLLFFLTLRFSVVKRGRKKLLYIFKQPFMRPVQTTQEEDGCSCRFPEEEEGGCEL
Experimental: CD137 binding multimers were evaluated for CD137 using a Reporter cell activity assay that uses NF-κB luciferase luminescence as a read-out of CD137 activation in Jurkat cells. […] Samples were diluted at concentration expected to give the maximum fold induction and then titrated down in 1/3 dilution series or 1/10 dilution series in a sterile 96 well-plate. […] 50 μl cells were added per well to white cell culture plates.
Cells were co-incubated together with agonists for 6 h at 37° C., 5% CO2. After 6 h Bio-Glo™ was thawed and the assay developed at room-temperature. 75 ul Bio-Glo™ was added per well and incubated for 5-10 min. Luciferase signal was read on a Pherastar plate-reader using MARS program. Data was analysed by transforming the data to x=log (X), then plotting log (agonist) vs. response variable slope (4 parameters) to calculate EC50 values.

Question: What does the source list for utomilumab?
Answer: dose up to which hepatotoxicity was not observed ([1]; solid tumors): up to 5 mg/kg; single agent activity [1]: little or no single agent activity

Question: What does the source list for “I: Ac-ACIEKGQYCFADPY[Nle]CA-NH2 / II: Ac-ACIEKGQYCFADPY[Nle]CA-NH2 / III: Ac-ACIEKGQYCFADPY[Nle]CA-NH2 (linker I:2-I:9-I:16, II:2-II:9-II:16, III:2-III:9-III:16 via TATA; linker I:5-II:5-III:5 via X1) [BCY7835]”?
Answer: systemic elimination (plasma concentration after IV dosing) [2]: retain the property of rapid systemic elimination; Average Relative Fold Induction relative to CD137L (CD137): 1.04

Question: What does the source list for `CCCC[C@@H]1NC(=O)[C@H](Cc2ccc(O)cc2)NC(=O)[C@@H]2CCCN2C(=O)[C@H](CC(=O)O)NC(=O)[C@H](C)NC(=O)[C@H](CCCCNC(=O)OCC2C3CCc4nnn(CCOCCOCCOCCOCCOCCOCCOCCOCCOCCOCCOCCOCCOCCOCCOCCOCCOCCOCCOCCOCCOCCOCCOCCNC(=O)CCOCC(COCCC(=O)NCCOCCOCCOCCOCCOCCOCCOCCOCCOCCOCCOCCOCCOCCOCCOCCOCCOCCOCCOCCOCCOCCOCCOCCn5nnc6c5CCC5C(CC6)C5COC(=O)NCCCC[C@@H]5NC(=O)[C@@H]6CSCCC(=O)N7CN(CN(C7)C(=O)CCSC[C@@H](C(=O)N[C@@H](C)C(N)=O)NC(=O)[C@H](CCCC)NC(=O)[C@H](Cc7ccc(O)cc7)NC(=O)[C@@H]7CCCN7C(=O)[C@H](CC(=O)O)NC(=O)[C@H](C)NC5=O)C(=O)CCSC[C@H](NC(=O)[C@H](C)NC(C)=O)C(=O)N[C@@H]([C@@H](C)CC)C(=O)N[C@@H](CCC(=O)O)C(=O)N[C@@H](CCC(=O)O)C(=O)NCC(=O)N[C@@H](CCC(N)=O)C(=O)N[C@@H](Cc5ccc(O)cc5)C(=O)N6)(COCCC(=O)NCCOCCOCCOCCOCCOCCOCCOCCOCCOCCOCCOCCOCCOCCOCCOCCOCCOCCOCCOCCOCCOCCOCCOCCn5nnc6c5CCC5C(CC6)C5COC(=O)NCCCC[C@@H]5NC(=O)[C@@H]6CSCCC(=O)N7CN(CN(C7)C(=O)CCSC[C@@H](C(=O)N[C@@H](C)C(N)=O)NC(=O)[C@H](CCCC)NC(=O)[C@H](Cc7ccc(O)cc7)NC(=O)[C@@H]7CCCN7C(=O)[C@H](CC(=O)O)NC(=O)[C@H](C)NC5=O)C(=O)CCSC[C@H](NC(=O)[C@H](C)NC(C)=O)C(=O)N[C@@H]([C@@H](C)CC)C(=O)N[C@@H](CCC(=O)O)C(=O)N[C@@H](CCC(=O)O)C(=O)NCC(=O)N[C@@H](CCC(N)=O)C(=O)N[C@@H](Cc5ccc(O)cc5)C(=O)N6)COCCC(=O)NCCOCCOCCOCCOCCOCCOCCOCCOCCOCCOCCOCCOCCOCCOCCOCCOCCOCCOCCOCCOCCOCCOCCOCCn5nnc6c5CCC5C(CC6)C5COC(=O)NCCCC[C@@H]5NC(=O)[C@@H]6CSCCC(=O)N7CN(CN(C7)C(=O)CCSC[C@@H](C(=O)N[C@@H](C)C(N)=O)NC(=O)[C@H](CCCC)NC(=O)[C@H](Cc7ccc(O)cc7)NC(=O)[C@@H]7CCCN7C(=O)[C@H](CC(=O)O)NC(=O)[C@H](C)NC5=O)C(=O)CCSC[C@H](NC(=O)[C@H](C)NC(C)=O)C(=O)N[C@@H]([C@@H](C)CC)C(=O)N[C@@H](CCC(=O)O)C(=O)N[C@@H](CCC(=O)O)C(=O)NCC(=O)N[C@@H](CCC(N)=O)C(=O)N[C@@H](Cc5ccc(O)cc5)C(=O)N6)c4CCC32)NC(=O)[C@@H]2CSCCC(=O)N3CN(CN(C3)C(=O)CCSC[C@@H](C(=O)N[C@@H](C)C(N)=O)NC1=O)C(=O)CCSC[C@H](NC(=O)[C@H](C)NC(C)=O)C(=O)N[C@@H]([C@@H](C)CC)C(=O)N[C@@H](CCC(=O)O)C(=O)N[C@@H](CCC(=O)O)C(=O)NCC(=O)N[C@@H](CCC(N)=O)C(=O)N[C@@H](Cc1ccc(O)cc1)C(=O)N2` (some centres unmarked) [BCY8148]?
Answer: Average Fold EC50 Improvement relative to CD137L (CD137; Average EC50 for CD137L = 14.2 nM): 18.71; Average Relative Fold Induction relative to CD137L (CD137): 1.20

Question: With urelumab as the molecule, how does the “doses at which hepatoxicity was observed” value [1] read?
Answer: Its value is no less than 1 mg/kg.

Question: What about the single agent activity [1] of the same molecule?
Answer: The single agent activity was “single agent, partial responses in melanoma”.
